From US20100016207A1, “Methods and Compositions for Raising Levels and Release of Gamma Aminobutyric Acid” (priority 2005, published 2010)

Tests used:
[1] = tested on: brain (striatal) GABA, glutamine and glutamate levels; assay: Striatal tissue neurotransmitter contents after oral glutamine (HPLC-EC); type: in vivo, Sprague Dawley rats; conditions: Gln by gavage, striata 2.5 hrs after dosing, vs saline (FIG. 3)
Procedure: (§1) Male adult Sprague Dawley (SD) rats (˜250 g) (n=9) were reared under and exposed to a 12 hr light/dark cycle, and provided with food (16% protein) and water ad libitum. Gln (0.5 grams per kilogram (g/Kg) or 1.0 g/Kg, in saline) or saline were administered by gavage. Rats were sacrificed by decapitation 2.5 hours (h) later.
To measure GABA contents, brains were quickly dissected on a chilled dissection board. Striata were homogenized with HClO4 and neutralized with 0.1 M Borate buffer (1:10). Data were normalized by the wet weights of the samples.
(§2) GABA was measured by HPLC, using an ODS column and OPA-sulfite derivation with electrochemical detection. OPA-sulfite HPLC-EC derivation was used to measure GABA levels in both brain tissue and microdialysis samples. The samples were derivatized at 4° C. to allow usage of an auto-sampler (Alltech 580). The detector used was an ESA Coulochem® II 5100A with an ESA microdialysis cell.
(§3) Data are presented as mean+/−S.E.M. ANOVA or t-test was used to determine differences between groups (significance level, p<0.05).

[2] = Plasma glutamate and glutamine levels after oral glutamine; type: in vivo, Sprague Dawley rats; conditions: Gln by gavage, vs saline (FIG. 4)
Procedure: as §1, §3

[3] = tested on: GABA release in rat striatum; assay: Microdialysis of spontaneous and NMDA-evoked GABA release in rat striatum; type: in vivo, rats; conditions: striatal microdialysis, mean±S.E.M.
Procedure: as §2, §3
Microdialysis was carried out in freely moving rats. Rats were anesthetized, and CMA/11 guide cannulas were permanently implanted into right striatum (AP=+0.5, ML=−3.0 from Bregma, DV=−3.3 mm from Dura) 1 week prior to microdialysis sampling. Dialysis collection was performed using a CMA/11 probe (4 mm), perfused with artificial cerebrospinal fluid (aCSF) at […] and collected at 20 min intervals.
GABAergic neurons were stimulated by NMDA (500 μM) in aCSF, 1 hr after Gln administration by gavage.

## NC(=O)CC[C@H](N)C(=O)O [Gln, glutamine]
[1]
  striatal Gln levels: significantly increased
  striatal Glu levels: slightly decreased
[2]
  plasma Gln levels: increased
  plasma Glu levels: not
[3]; Gln by gavage, freely moving rats, saline 111±7%, p<0.05 (FIG. 6)
  Maximal spontaneous GABA release: 141±12%
[3]; NMDA 500 μM in aCSF 1 hr after Gln by gavage, saline 177±40% (FIG. 7)
  NMDA-evoked GABA release: 252±37%
